Target: T1, LTD4 /E4 receptors (Cavia porcellus, UniProt Q2NNR5)
T1 construct: membrane fractions, containing the LTD4 /E4 receptors, are prepared from guinea-pig lung parenchyma; from tissue; host or cells: guinea-pig lung parenchyma membrane fractions
T1 sequence (Q2NNR5 1-340): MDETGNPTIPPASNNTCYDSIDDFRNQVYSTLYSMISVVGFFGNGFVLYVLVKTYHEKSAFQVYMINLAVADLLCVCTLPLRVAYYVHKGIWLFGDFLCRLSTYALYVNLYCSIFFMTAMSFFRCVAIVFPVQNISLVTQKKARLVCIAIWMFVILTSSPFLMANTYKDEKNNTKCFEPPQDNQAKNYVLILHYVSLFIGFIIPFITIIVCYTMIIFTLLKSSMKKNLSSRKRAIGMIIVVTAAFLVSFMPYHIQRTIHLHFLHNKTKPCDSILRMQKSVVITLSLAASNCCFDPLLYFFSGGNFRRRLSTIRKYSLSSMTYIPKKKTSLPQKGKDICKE
Experiment: receptor-ligand binding assay, 3H-LTD4 on guinea-pig lung parenchyma membrane fractions
Conditions: 1 nM 3H-LTD4, 30 minutes at 22° C.; Ki calculated from IC50 by the Cheng-Prusoff equation
Procedure: According to this procedure, membrane fractions, containing the LTD4 /E4 receptors, are prepared from guinea-pig lung parenchyma and incubated for 30 minutes at 22° C. with 1 nM ^3 H-LTD4 in the absence or presence of tested antagonist. Specific binding, determined under conditions that prevent enzymatic metabolism of ^3 H-LTD4, is the net result of total ^3 H-LTD4 binding minus nonspecific binding determined in the presence of […] excess unlabelled LTD4. Each assay is done in duplicate and results (Ki values) are typically a mean of several such determinations in individual receptor batches.
The % inhibition by a tested antagonist, relative to control binding (vehicle alone), is expressed as a […] of log[antagonist] concentration (in molar units) and the half-maximal inhibition (IC50) determined by computerized non-linear least-square analysis. The binding constant (Ki) is then calculated from IC50 by the Cheng-Prusoff equation: [formula] where [L] is ^3 H-LTD4 concentration and Kd is the affinity constant of LTD4 to this receptor, determined separately for each batch. (Biochem. Pharmacol. 22: 3099-3108, 1973).

Ki: 1 nM
SMILES: COc1cc(C(=O)NS(=O)(=O)c2ccccc2C)ccc1Cc1cn(C)c2ccc(CCNC(=O)N(C)C)cc12 [Example 4, 4-[5-[2-(N',N'-Dimethylureido)ethyl]-1-methylindol-3-ylmethyl]-3-methoxy-N-(2-methylphenylsulfonyl)benzamide]

Source: patent US5041460A, “Heter-aliphatic carboxamides” (ICI Americas Inc., priority 1989, dated 1991)
